Here are results for five molecules from ChEMBL document CHEMBL3132774, “The advantage of biosensor analysis over enzyme inhibition studies for slow dissociating inhibitors characterization of hydroxamate-based matrix metalloproteinase-12 inhibitors” (Medchemcomm, 2013).

pKi: −log10 of the molar value.

For assay [1], the target named is T1, Macrophage metalloelastase (Homo sapiens, UniProt P39900). Nature of the assay: Inhibition of human recombinant MMP12 using Mca-Pro-Leu-Gly-Leu-Dpa-Ala-Arg-NH2 as substrate incubated for 10 mins prior to substrate addition by spectrophotometry. The settings on record: read-out: Ki(app).
Target sequence in this assay (P39900 whole entry): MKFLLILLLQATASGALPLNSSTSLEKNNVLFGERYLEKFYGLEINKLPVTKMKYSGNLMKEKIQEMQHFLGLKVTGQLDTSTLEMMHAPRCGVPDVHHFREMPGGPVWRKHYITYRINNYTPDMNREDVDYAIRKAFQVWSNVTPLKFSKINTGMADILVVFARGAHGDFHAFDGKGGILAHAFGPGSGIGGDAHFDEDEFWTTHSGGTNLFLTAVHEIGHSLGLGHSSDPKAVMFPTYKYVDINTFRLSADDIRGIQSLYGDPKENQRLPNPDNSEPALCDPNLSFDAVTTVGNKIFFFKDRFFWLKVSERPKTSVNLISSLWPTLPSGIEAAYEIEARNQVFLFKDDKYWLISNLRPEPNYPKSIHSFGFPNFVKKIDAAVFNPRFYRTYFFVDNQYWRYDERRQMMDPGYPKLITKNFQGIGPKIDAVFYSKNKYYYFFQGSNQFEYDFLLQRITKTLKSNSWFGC
The target in assay [2] is T1, Macrophage metalloelastase. Kind of assay: Time dependent inhibition of human recombinant MMP12 by progress curve enzyme inhibition assay. The settings on record: read-out: Ki(app).
Target sequence in this assay (P39900 whole entry): as above
For assay [3], the target named is T1, Macrophage metalloelastase. Nature of the assay: Inhibition of human recombinant MMP12 by SPR assay. Background: SPR reads the build-up and loss of mass on a sensor chip optically.
Target sequence in this assay (P39900 106-470 limits assumed): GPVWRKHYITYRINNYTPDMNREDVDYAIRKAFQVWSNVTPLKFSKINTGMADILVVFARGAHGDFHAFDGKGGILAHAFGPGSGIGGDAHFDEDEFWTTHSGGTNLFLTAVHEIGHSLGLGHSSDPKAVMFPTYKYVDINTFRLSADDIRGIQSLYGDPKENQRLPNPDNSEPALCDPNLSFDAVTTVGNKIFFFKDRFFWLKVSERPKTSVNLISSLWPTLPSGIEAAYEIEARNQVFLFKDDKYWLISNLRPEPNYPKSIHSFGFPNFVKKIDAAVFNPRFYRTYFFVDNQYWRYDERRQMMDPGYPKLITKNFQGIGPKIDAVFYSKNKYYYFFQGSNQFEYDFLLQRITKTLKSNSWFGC

By pKi is commonly meant −log10 of the Ki, conventionally taken in molar units. As to `COc1ccc(S(=O)(=O)N2CC(C)(C)CN(S(=O)(=O)c3ccc(OC)cc3)C2C(=O)NO)cc1`, the figures for the pKi in assay [1] and in assay [2] were 8.72 and 9.21, respectively.

As to `CNC(=O)[C@H](Cc1c[nH]c2ccccc12)NC(=O)[C@@H](CC(=O)NO)CC(C)C` [ILOMASTAT], the pKi was 8.42 in assay [1] and 9.28 in assay [2]. For the same molecule, in assay [3], the inhibition result was “Dose-dependent effect”.

For `CCN(CC)Cc1cc(C)c(N(Cc2ccccc2)S(=O)(=O)c2ccc(OC)cc2)cc1C(=O)NO`, the negative logarithm of the Ki (pKi) is 7.52 in assay [1] and 8.45 in assay [2].

Consider `CNC(=O)[C@H](Cc1ccccc1)NC(=O)[C@H](CCc1ccc(-c2cccnc2)cc1)CC(=O)NO`, for which the pKi in assay [1] was 9.00.

Consider `CNC(=O)[C@H](Cc1ccccc1)NC(=O)[C@H](CCc1ccc(-c2cccnc2)cc1)CC(=O)O`, for which the pKi in assay [1] is 7.32. Besides, the inhibition entry in assay [3] was “Dose-dependent effect”.
